Experimental data taken from PMC7072624 (Biomolecules, 2020).

Columns and labels:
[1] = target: T1, peroxisome proliferator-activated receptor γ (PPARγ) (Homo sapiens, UniProt P37231); test: ([…] Å); competitive TR-FRET binding assay
T1 construct: gene PPARG
T1 sequence (P37231 223-505): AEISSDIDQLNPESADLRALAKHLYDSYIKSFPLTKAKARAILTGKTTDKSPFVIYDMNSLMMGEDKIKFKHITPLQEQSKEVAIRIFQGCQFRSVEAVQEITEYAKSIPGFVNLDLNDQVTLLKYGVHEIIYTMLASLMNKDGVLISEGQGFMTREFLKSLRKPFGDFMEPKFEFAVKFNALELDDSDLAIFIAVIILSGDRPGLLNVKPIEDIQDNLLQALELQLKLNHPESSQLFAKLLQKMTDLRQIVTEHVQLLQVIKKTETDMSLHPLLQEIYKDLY

[2] = target: T2, CDK5 (CDK5/p25) (Homo sapiens, UniProt Q00535); test: in vitro kinase inhibition assay; type: biochemical
T2 construct: with p25

[3] = target: T3, PPARγ (Homo sapiens, UniProt P37231); test: competitive TR-FRET binding assay (Lanthascreen)
T3 construct: gene PPARG
T3 sequence (P37231 1-505): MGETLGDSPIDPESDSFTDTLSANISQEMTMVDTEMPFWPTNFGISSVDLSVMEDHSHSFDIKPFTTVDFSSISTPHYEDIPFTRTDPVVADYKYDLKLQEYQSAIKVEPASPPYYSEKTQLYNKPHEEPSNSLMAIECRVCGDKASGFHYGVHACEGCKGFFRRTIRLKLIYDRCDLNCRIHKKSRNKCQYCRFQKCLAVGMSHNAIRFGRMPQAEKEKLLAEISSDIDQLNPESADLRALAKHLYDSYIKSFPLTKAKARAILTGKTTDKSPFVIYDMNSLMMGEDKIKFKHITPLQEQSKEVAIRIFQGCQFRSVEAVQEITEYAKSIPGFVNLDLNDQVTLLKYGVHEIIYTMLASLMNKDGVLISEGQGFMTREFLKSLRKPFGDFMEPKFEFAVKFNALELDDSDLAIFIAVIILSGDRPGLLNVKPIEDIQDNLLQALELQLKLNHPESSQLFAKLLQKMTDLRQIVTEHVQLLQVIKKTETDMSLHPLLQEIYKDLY

T2 sequence (Q00535 whole entry): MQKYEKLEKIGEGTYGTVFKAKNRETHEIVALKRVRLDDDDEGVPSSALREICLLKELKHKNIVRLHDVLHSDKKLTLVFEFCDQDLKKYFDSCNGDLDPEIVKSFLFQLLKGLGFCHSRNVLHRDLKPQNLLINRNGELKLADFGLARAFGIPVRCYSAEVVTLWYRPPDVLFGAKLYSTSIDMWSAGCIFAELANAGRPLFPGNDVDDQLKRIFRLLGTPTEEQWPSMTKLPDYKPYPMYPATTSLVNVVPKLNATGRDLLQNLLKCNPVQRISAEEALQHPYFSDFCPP
T2 sequence (Q15078 2-307 partner): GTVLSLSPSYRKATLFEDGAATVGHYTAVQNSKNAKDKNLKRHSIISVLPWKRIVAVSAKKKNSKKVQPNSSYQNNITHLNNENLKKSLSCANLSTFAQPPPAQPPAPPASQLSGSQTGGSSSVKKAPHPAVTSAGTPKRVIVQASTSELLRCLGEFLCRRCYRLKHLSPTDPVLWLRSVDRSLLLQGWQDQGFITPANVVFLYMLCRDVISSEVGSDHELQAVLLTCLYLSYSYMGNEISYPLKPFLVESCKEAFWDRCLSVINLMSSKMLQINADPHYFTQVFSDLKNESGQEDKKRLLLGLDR

Structure (SMILES) | Ki [1] [nM] | IC50 [2] [nM] | Ki [3] [nM]
COC(=O)[C@]1(Cc2ccc(O)c(CC=C(C)C)c2)OC(=O)C(O)=C1c1ccc(O)cc1 [butyrolactone I] | 2640 | 170 | 
COc1ccc(Cl)cc1C(=O)NCCc1ccc(S(=O)(=O)NC(=O)NC2CCCCC2)cc1 [glibenclamide] |  |  | 1180
